Experimental data as given in patent US20070225344A1, “Sulfonamide derivatives to treat infection with hepatitis C virus” (priority 2006, published 2007).

Target: T1, HCV RdRp NS5B d21BK (BK strain, 1b subtype) (Hepatitis C virus genotype 1b, UniProt P26663)
T1 construct: NS5B from the BK strain (1b subtype) is expressed in E. coli as a protein in which the 21 C-terminal amino acids are replaced; made in house; host or cells: E. coli
T1 sequence (P26663 2420-2997, looked up, natural form): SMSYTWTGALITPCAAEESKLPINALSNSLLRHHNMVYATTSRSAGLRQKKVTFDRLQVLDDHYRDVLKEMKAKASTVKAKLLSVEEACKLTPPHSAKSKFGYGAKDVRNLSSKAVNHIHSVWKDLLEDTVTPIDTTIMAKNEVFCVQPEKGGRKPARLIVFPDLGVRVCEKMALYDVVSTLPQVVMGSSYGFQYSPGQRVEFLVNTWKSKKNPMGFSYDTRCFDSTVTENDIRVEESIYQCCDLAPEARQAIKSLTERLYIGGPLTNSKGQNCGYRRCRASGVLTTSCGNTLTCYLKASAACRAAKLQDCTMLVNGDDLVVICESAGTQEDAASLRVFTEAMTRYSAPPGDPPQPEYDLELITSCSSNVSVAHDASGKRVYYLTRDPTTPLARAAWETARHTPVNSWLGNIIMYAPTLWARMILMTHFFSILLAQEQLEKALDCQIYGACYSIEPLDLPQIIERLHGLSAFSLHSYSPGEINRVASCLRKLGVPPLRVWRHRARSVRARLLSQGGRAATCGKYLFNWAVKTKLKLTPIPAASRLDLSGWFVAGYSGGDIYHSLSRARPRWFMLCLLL
Assay: HCV polymerase (NS5B) RNA-dependent RNA polymerase inhibition, 33P-GTP filter assay
Format: biochemical
Conditions: in vitro; NS5B BK strain (1b subtype), 24 nM enzyme, 2 h at room temperature; read-out: HCV Polymerase Median IC50
Excerpt: The ability of the compounds of the present invention to inhibit hepatitis C polymerase was established by the following experimental procedure:
NS5B from the BK strain (1b subtype) is expressed in E. coli as a protein in which the 21 C-terminal amino acids are replaced with a short linker and a hexahistidine tag (GSHHHHHH). The purified protein is mixed with radioactive nucleotides and allowed to replicate a heteropolymeric RNA substrate, primed by an endogenous short hairpin, resulting in an approximately 760 nt product. The radioactive product is captured on a filter and quantitated after removal of the unincorporated nucleotides.
(1) Compounds 10 μl at 10 μg/ml in 15% DMSO
Add 20 μl enzyme mix into each well of the assay plate. Incubate compound and enzyme at room temperature for 15 minutes.
(3) Template Mix—Prepare Ahead.
Spin down a tube of RNA (5 μg/tube stored in 75% ethanol and 0.3 M sodium acetate) in a microcentrifuge for 20 min. at 4° C. One tube is enough for 1 to 1½ plates. Remove as much ethanol from the tube as possible by inverting the tube. Be gentle, pellet RNA may not adhere to the tube. Vacuum dry the RNA. Resuspend the RNA by adding 1 ml of DEPC water, close the cap of the tube tightly. To dissolve RNA, incubate RNA solution on ice for ˜60 min. and gently vortex. Spin briefly to ensure all RNA solution is down to the bottom of the tube before opening cap. Gently transfer RNA solution into a 5 ml or larger tube. Add another 3 ml of DEPC water (total 4 ml of volume).
Add the following volumes of reagents.
Add 20 μl template mix per reaction (i.e. 20 ng of POF per reaction or ˜3 nM)
(4) Incubate reaction at room temperature (22-25° C.) for 2 hours.
(5) Stop reaction by adding 50 μl of 170 mM EDTA.
Final concentration of EDTA is 85 mM.
(6) Prewet filters of Millipore Multiscreen filter plate by adding 200 μl of 0.5 M sodium phosphate buffer, pH 7.0 into each well. Let stand at room temperature for 2-3 min.
(7) Place the Multiscreen filter plate onto a Millipore Manifold and turn on vacuum to allow buffer to flow through. Turn off vacuum. Transfer 80 μl of the reaction product into each well of the filter plate. Let stand for 2-3 min. Turn on vacuum to filter reaction product.
(8) Turn off vacuum. Add 200 μl of 0.5 M sodium phosphate buffer, pH 7.0 into each well to wash filter. Turn on vacuum.
Repeat step (8) three more times.
(9) Remove polypropylene bottom. Spot dry filter at the bottom with paper towel. Air dry filter plate on a bench for 1 hr. Add 40 μl Super Mix scintillant. Seal top of the plate with a tape. Place plate into a Packard carrier or MicroBeta carrier.
(10) Count plate using a Packard Topcount or MicroBeta counter. Program 10 for ^33P in Top count or ^33P program in micro-beta.
Percent inhibition is calculated after background subtraction as a percent reduction of activity relative to the positive control (average value of the plate excluding the negative controls).
In the case of `O=C(O)[C@@H]1CSCN1S(=O)(=O)c1cc(F)cc(Cl)c1O` [Example 49, (4R)-3-[(3-chloro-5-fluoro-2-hydroxyphenyl)sulfonyl]-1,3-thiazolidine-4-carboxylic acid], the IC50 is reported as 2130 nM.
Work on `O=S(=O)(c1cc(Cl)cc(Cl)c1O)N1CCC[C@H]1CO` [Example 21, 2,4-dichloro-6-{[(2S)-2-(hydroxymethyl)pyrrolidin-1-yl]sulfonyl}phenol] yielded an IC50 of 6100 nM.
With `O=C(O)[C@@H]1C[C@@H](O)CN1S(=O)(=O)c1cc(Br)cc(Br)c1O` [Example 6, (4R)-1-[(3,5-dibromo-2-hydroxyphenyl)sulfonyl]-4-hydroxy-L-proline] the IC50 was 460 nM.
For `O=C(O)[C@H]1CSCN1S(=O)(=O)c1cc(Cl)cc(Cl)c1O` [Example 51, (4S)-3-[(3,5-dichloro-2-hydroxyphenyl)sulfonyl]-1,3-thiazolidine-4-carboxylic acid], the IC50 was 1710 nM.
In the case of `Cc1cc(NC(=O)c2ccccc2)c(S(=O)(=O)N2CCC[C@H]2C(=O)O)cc1Cl` [Example 34, 1-{[2-(benzoylamino)-5-chloro-4-methylphenyl]sulfonyl}-L-proline], the IC50 is reported as 10100 nM.
Work on `O=C(O)[C@H]1CSCN1S(=O)(=O)c1cc(Cl)cc(Br)c1O` [Example 50, (4S)-3-[(3-bromo-5-chloro-2-hydroxyphenyl)sulfonyl]-1,3-thiazolidine-4-carboxylic acid] yielded an IC50 of 870 nM.
With `O=C(O)[C@H]1CCCN1S(=O)(=O)c1cc(Cl)c(Cl)c(Cl)c1O` [Example 13, 1-[(3,4,5-trichloro-2-hydroxyphenyl)sulfonyl]-D-proline] the IC50 was 1170 nM.
`O=C(O)[C@@H]1CCCN1S(=O)(=O)c1cc(Cl)cc(Cl)c1O` [Example 11, 1-[(3,5-dichloro-2-hydroxyphenyl)sulfonyl]-L-proline] gave an IC50 of 890 nM.
`O=C(O)[C@H]1CSCN1S(=O)(=O)c1cc(F)cc(Cl)c1O` [Example 57, (4S)-3-[(3-chloro-5-fluoro-2-hydroxyphenyl)sulfonyl]-1,3-thiazolidine-4-carboxylic acid] showed an IC50 of 14400 nM.
For `Cc1cc(N)c(S(=O)(=O)N2CSC[C@H]2C(=O)O)cc1Cl` [Example 58, (4R)-3-[(2-amino-5-chloro-4-methylphenyl)sulfonyl]-1,3-thiazolidine-4-carboxylic acid], the IC50 was 1980 nM.
Compound `O=C(O)[C@@H]1CCCCN1S(=O)(=O)c1cc(F)cc(Cl)c1O` [Example 41, (2S)-1-[(3-chloro-5-fluoro-2-hydroxyphenyl)sulfonyl]piperidine-2-carboxylic acid] has an IC50 of 1890 nM.
For `O=S(=O)(c1cc(Cl)cc(Cl)c1O)N1CCC[C@H]1c1nn[nH]n1` [Example 1, 2,4-dichloro-6-{[(2S)-2-(2H-tetrazol-5-yl)pyrrolidin-1-yl]sulfonyl}phenol], the IC50 was 560 nM.
`O=C(O)[C@@H]1CCCN1S(=O)(=O)c1cc(Cl)cc(Br)c1O` [Example 5, 1-[(3-bromo-5-chloro-2-hydroxyphenyl)sulfonyl]-L-proline] gave an IC50 of 260 nM.
For `O=C(O)[C@@H]1CCCN1S(=O)(=O)c1cc(Br)cc(Cl)c1O` [Example 8, 1-[(5-bromo-3-chloro-2-hydroxyphenyl)sulfonyl]-L-proline], the IC50 was 400 nM.
Work on `O=C(O)[C@H]1CCCCN1S(=O)(=O)c1cc(Cl)cc(Br)c1O` [Example 40, (2R)-1-[(3-bromo-5-chloro-2-hydroxyphenyl)sulfonyl]piperidine-2-carboxylic acid] yielded an IC50 of 1160 nM.
For `O=C(O)[C@H]1CCCN1S(=O)(=O)c1cc(Cl)cc(Cl)c1O` [Example 31, 1-[(3,5-dichloro-2-hydroxyphenyl)sulfonyl]-D-proline], the IC50 was 6450 nM.
Work on `O=C(O)[C@@H]1CCCN1S(=O)(=O)c1cc(Br)cc(Br)c1O` [Example 9, 1-[(3,5-dibromo-2-hydroxyphenyl)sulfonyl]-L-proline] yielded an IC50 of 560 nM.
`Cc1cc(NC(=O)c2cccs2)c(S(=O)(=O)N2CCC[C@H]2C(=O)O)cc1Cl` [Example 26, 1-({5-chloro-4-methyl-2-[(2-thienylcarbonyl)amino]phenyl}sulfonyl)-L-proline] showed an IC50 of 6870 nM.
Work on `Cc1cc(N)c(S(=O)(=O)N2CCC[C@H]2C(=O)O)cc1Cl` [Example 20, 1-[(2-amino-5-chloro-4-methylphenyl)sulfonyl]-L-proline] yielded an IC50 of 5950 nM.
In the case of `O=C(O)[C@@H]1CCCCN1S(=O)(=O)c1cc(Cl)cc(Cl)c1O` [Example 43, (2S)-1-[(3,5-dichloro-2-hydroxyphenyl)sulfonyl]piperidine-2-carboxylic acid], the IC50 is reported as 7100 nM.
In the case of `O=C(O)[C@@H]1CCCN1S(=O)(=O)c1cc(F)cc(Cl)c1O` [Example 14, 1-[(3-chloro-5-fluoro-2-hydroxyphenyl)sulfonyl]-L-proline], the IC50 is reported as 2050 nM.
With `CC(=O)[C@@H]1CCCN1S(=O)(=O)c1cc(Cl)cc(Cl)c1O` [Example 16, 1-{(2S)-1-[(3,5-dichloro-2-hydroxyphenyl)sulfonyl]pyrrolidin-2-yl}ethanone] the IC50 was 2620 nM.

Tested on: not given
Assay: not given
Conditions: not given
In the case of `O=C(O)[C@@H]1CCCN1S(=O)(=O)c1cc(Cl)cc(Cl)c1O` [Example 11, 1-[(3,5-dichloro-2-hydroxyphenyl)sulfonyl]-L-proline], the melting point is reported as 107.4 °C.
